Columns and labels:
mouse SMC = test: SMC proliferation, [3H]thymidine incorporation; assay type: cell-based; details: for SMC proliferation / Inhibition of SMC proliferation versus air treated controls: CO 250 ppm
Description: (§1) Animals. Male (250-350 g) Brown Norway rats (RT1^n) were used as aortic graft donors and male (250-350 g) Lewis rats (RT11) as recipients. Dawley (400-450 g) rats were used in the balloon injury model. Adult male C57BL/6, C57/S129, p21^−/− and p53^−/− null mice were purchased from Jackson Laboratory (Bar Harbor, Me.). mkk3^(−/−) null mice were generated as described Lu et al. (EMBO. 18:1845-1857 (1999)). The inos^−/− and enos^−/− mice were bred at the University of Pittsburgh. Aortic transplant model. Aortic transplantation was performed as described in Shimizu et al. (Nat. Med. 7:738-741 (2001)). Briefly, 3 to 4 cm of descending aorta was harvested from the donor and implanted between the renal arteries and the aortic bifurcation of the recipient. Both edges of the native abdominal aorta were ligated. Balloon injury model. Balloon angioplasty was carried out as described in Murakami et al. (Atherosclerosis 157:361-368 (2001)). Briefly, a 2 Fr. arterial embolectomy catheter (Baxter, Chicago, Ill.) was inserted into the common carotid artery, and injury was created by inflating the balloon to 5 atmospheres of pressure for 5 minutes. The arteries were flushed and the external carotid artery was ligated, ensuring return of blood flow through the common and internal carotid arteries. Injury of the vessel wall and subsequent pathological analysis was made in a manner that was blinded to the treatment group. CO exposure. CO was delivered to animals as described in Otterbein et al. (Nat. Med. 6:422-428 (2000)). Graft donors and recipients were exposed to CO (250 ppm) for two days before transplantation and for 56 days immediately following transplantation. In the balloon injury model, rats received either no pretreatment or were exposed to CO (250 ppm) for one hour prior to injury. Following surgery rats were housed in room air for two weeks. Cells. Primary mouse and rat smooth muscle cells (SMC) were isolated and cultured as described in Laubach et al. (Proc Natl Acad Sci USA 92:10688-9 (1995)). Mouse SMC isolated from HO-1^−/− mice were obtained as described in Duckers et al. (Nat. Med. 7:693-698 (2001)). Cell treatment and reagents. Guanylate cyclase inhibitor 1H(1,2,4) oxadiazolo(4,3-a)quinoxalin-1 (ODQ; Calbiochem-Novabiochem, San Diego, Calif.; 10-100 μM) and p38 MAPK inhibitor pyridinyl imidazol SB203580 (Calbiochem; 5-20 μM) were dissolved in DMSO. The cGMP analogue 8-bromo-cGMP sodium salt (8-Br-cGMP; Sigma-Aldrich, St. Louis, Mo.; 10-100 μM) and the PKG inhibitor (10-100 μM; Alexis Biochemicals) were dissolved in water. Cell counts and [^3H] thymidine incorporation. Rat and mouse SMC were isolated and cultured as described in Peyton et al. (Blood 99:4443-4448 (2002)). Proliferation assays were carried out as described in Petkova et al. (J Biol. Chem. 276:7932-7936 (2001)). For [^3H] thymidine incorporation studies, cells were serum-starved overnight and then stimulated with 10% serum containing 5 μCi/ml [^3H] thymidine (New England Nuclear, Boston Mass.). [^3H]thymidine incorporation was measured by scintillation spectroscopy and presented as mean counts/min/well. Histomorphometric analysis. Aortic grafts and carotid arteries were harvested at 56 and 14 days respectively. Vessels were fixed, embedded, and serially sectioned (5μ) in toto. Every third slide was stained with Hematoxylin and Eosin (H&E) for histomorphometric analyses. In both models, one or two images per slide at a resolution of 1520×1080 pixels were captured at a magnification of 25× with a Zeiss microscope (Axioskop, Iowa City, Iowa), RT color SPOT (Diagnostic Instrument, Inc., Saint Joseph, Mich.) and Windows NT (Compaq Computer) using Adobe Photoshop version 5.5 software. Areas from eight to ten captured images were calculated using digital imaging software as number of pixels corresponding to those areas. Twenty-four to forty-eight sections from each group were statistically analyzed with SPSS software version 10. Immunostaining and cell population histomorphometric analysis. […]

rat SMC = test: SMC proliferation, cell counts; assay type: cell-based
Description: (§2) Animals. Male (250-350 g) Brown Norway rats (RT1^n) were used as aortic graft donors and male (250-350 g) Lewis rats (RT11) as recipients. Dawley (400-450 g) rats were used in the balloon injury model. Adult male C57BL/6, C57/S129, p21^−/− and p53^−/− null mice were purchased from Jackson Laboratory (Bar Harbor, Me.). mkk3^(−/−) null mice were generated as described Lu et al. (EMBO. 18:1845-1857 (1999)). The inos^−/− and enos^−/− mice were bred at the University of Pittsburgh. Aortic transplant model. Aortic transplantation was performed as described in Shimizu et al. (Nat. Med. 7:738-741 (2001)). Briefly, 3 to 4 cm of descending aorta was harvested from the donor and implanted between the renal arteries and the aortic bifurcation of the recipient. Both edges of the native abdominal aorta were ligated. Balloon injury model. Balloon angioplasty was carried out as described in Murakami et al. (Atherosclerosis 157:361-368 (2001)). […] [^3H]thymidine incorporation was measured by scintillation spectroscopy and presented as mean counts/min/well. […] Areas from eight to ten captured images were calculated using digital imaging software as number of pixels corresponding to those areas. Twenty-four to forty-eight sections from each group were statistically analyzed with SPSS software version 10. […]

p38 MAPK = test: Western blot of phosphorylated p38 MAPK in SMC; assay type: cell-based, mouse
Description: as §1, with “The cGMP analogue 8-bromo-cGMP sodium salt (8-Br-cGMP; Sigma-Aldrich, St. Louis, Mo.; 10-100 μM) and the PKG inhibitor (10-100 μM; Alexis Biochemicals) were dissolved in water. Cell counts and [^3H] thymidine incorporation. Rat and mouse SMC were isolated and cultured as described in Peyton et al. (Blood 99:4443-4448 (2002)). Proliferation assays were carried out as described in Petkova et al. (J Biol. Chem. 276:7932-7936 (2001)). For [^3H] thymidine incorporation studies, cells were serum-starved overnight and then stimulated with 10% serum containing 5 μCi/ml [^3H] thymidine (New England Nuclear, Boston Mass.).” left out, “Histomorphometric analysis. Aortic grafts and carotid arteries were harvested at 56 and 14 days respectively. Vessels were fixed, embedded, and serially sectioned (5μ) in toto. Every third slide was stained with Hematoxylin and Eosin (H&E) for histomorphometric analyses. In both models, one or two images per slide at a resolution of 1520×1080 pixels were captured at a magnification of 25× with a Zeiss microscope (Axioskop, Iowa City, Iowa), RT color SPOT (Diagnostic Instrument, Inc., Saint Joseph, Mich.) and Windows NT (Compaq Computer) using Adobe Photoshop version 5.5 software.” left out, “10.” for “10. Immunostaining and cell population histomorphometric analysis.”

rat aortic SMC = test: Flow cytometry cell cycle analysis; assay type: cell-based; details: CO 250 ppm, 24 hours
Description: as §2

cGMP = cGMP immunoassay (EIA) of SMC lysates; assay type: cell-based, mouse; details: CO 250 ppm for 8 h or 16 h
Description: as §2

JNK-1 and -2 = test: Western blot of phosphorylated JNK in SMC; assay type: cell-based; details: SMC exposed to CO (250 ppm)
Description: as §2

[1] = system: intimal hyperplasia in Brown Norway aortic segments transplanted into Lewis rats; test: Aortic transplant model, histomorphometric analysis of intimal hyperplasia; assay type: in vivo, rat; details: CO 250 ppm after transplantation and for 56 days; vs air-exposed recipients; day 56; p<0.001
Description: as §2

iNOS and eNOS = test: Western blot of NOS isoforms in SMC; assay type: cell-based, mouse; details: CO 250 or 10,000 ppm, varying amounts of time
Description: as §2

SMC = test: Trypan blue and propidium iodide exclusion analyses; assay type: cell-based; details: SMC exposed to CO
Description: as §2

ERK-1 and -2 = test: Western blot of phosphorylated ERK in SMC; assay type: cell-based; details: SMC exposed to CO (250 ppm)
Description: as §2

p21Cip1 = test: Western blot of p21Cip1 expression; assay type: cell-based, mouse
Description: as §1

ATF-2 = test: Western blot of phosphorylated ATF-2 in SMC; assay type: cell-based; details: SMC exposed to CO (250 ppm)
Description: as §2

[C-]#[O+] [CO, carbon monoxide]
SMC proliferation (mouse SMC; SMC from ho-1-/- mice): significantly inhibited | Inhibition of SMC proliferation versus air treated controls (mouse SMC; SMC from nos-2-/- (iNOS) mice): 51±25% | Inhibition of SMC proliferation versus air treated controls (mouse SMC; SMC from nos-3-/- (eNOS) mice): 54±11% | SMC proliferation (mouse SMC; SMC from p21Cip1 deficient mice (p21-/-)): not suppressed | SMC proliferation (mouse SMC; SMC from p53-/- mice, similar extent as wild type): inhibited proliferation | Inhibition of SMC proliferation versus air treated controls (mouse SMC; SMC from wild type mice): 51±12.9% | Cell proliferation (mouse SMC; cells from mkk3-/- mice exposed to CO): did not inhibit proliferation | Reversibility of the anti-proliferative effect (rat SMC; cessation of CO exposure (250 ppm) on day 6): reversible | SMC proliferation (rat SMC; exposure to CO (1000 ppm, FIG. 4B)): suppressed | Time of peak p38 MAPK phosphorylation/activation after exposure (p38 MAPK; CO 250 ppm): four | p38 MAPK phosphorylation/activation (p38 MAPK; SMC exposed to CO (250 ppm)): activated | Cell cycle distribution (rat aortic SMC): accumulated in the G0/G1 phase | Intracellular cGMP levels (cGMP): increased | Activation of JNK-1 and -2 (JNK-1 and -2): induced activation | Intimal hyperplasia, reduction versus control [1]: 61.4±12.9% | Induction of NOS isoforms (iNOS and eNOS): no induction | Cell death accompanying inhibition of SMC proliferation (SMC): not associated with cell death | Activation of ERK-1 and -2 (ERK-1 and -2): did not modulate | Time of maximal p21Cip1 expression after CO exposure (p21Cip1; CO 250 ppm, increased by 4 hours, basal at 24 hours): 16 h | p21Cip1 protein expression (p21Cip1; SMC exposed to CO (250 ppm)): up-regulated | ATF-2 activation (ATF-2): activation

— patent US7691416B2, “Methods of treating vascular disease” (priority 2002, dated 2010)
